# Measured values published in article PMC9295786, “Discovery of potent BET bromodomain 1 stereoselective inhibitors using DNA-encoded chemical library selections” (Proceedings of the National Academy of Sciences of the …, 2022).
# Values joined by “and” are separate entries in the source; they are usually repeats but may differ in a detail not shown here. Equal entries are not always repeated. Where two headings read alike, the source gives them in different places.
# What was measured:
# [1] = Metabolic stability assay in liver microsomes (MLM); format: in vitro ADME; settings: mouse liver microsomes 0.5 mg protein/mL, compound 2.0 μM, NADPH 1.0 mM; read-out: MLM t1/2 (half-life)
# [2] = Metabolic stability assay in liver microsomes (HLM); format: in vitro ADME; settings: human liver microsomes 0.5 mg protein/mL, compound 2.0 μM, NADPH 1.0 mM; read-out: HLM t1/2 (half-life)
# BRD4-BD2 = target: T1, BRD4-BD2 (Homo sapiens, UniProt O60885); experiment: AlphaScreen competition assay with biotinylated JQ1; format: binding; settings: read-out: BRD4-BD2 IC50
# T1 construct: two similar tandem bromodomains (BD1 and BD2); made in house; host or cells: bacteria (pET15b or pET28b vector)
# BRD4-BD1 [3] = target: T2, BRD4-BD1 (Homo sapiens, UniProt O60885); experiment: as above; format: binding; set-up: the bromodomain 1 (BD1) of BRD4; made in house; host or cells: bacteria (pET15b or pET28b vector); settings: for BRD4-BD1 vs. BRD4-BD2 fold (BRD4-BD1 selectivity): ratio of AlphaScreen IC50 values, NE = not efficient; for IC50: read-out: BRD4-BD1 IC50
# BRDT-BD2 = target: T3, BRDT-BD2 (Homo sapiens, UniProt Q58F21); experiment: as above; format: binding
# T3 construct: two similar tandem bromodomains (BD1 and BD2); made in house; host or cells: bacteria (pET15b or pET28b vector)
# BRDT-BD1 = BRDT-BD1 (Homo sapiens, UniProt Q58F21); experiment: as above; format: binding; set-up: the first bromodomain of BRDT (BRDT-BD1); made in house; host or cells: bacteria (pET15b or pET28b vector); settings: for BRDT-BD1 vs. BRDT-BD2 fold (BRDT-BD1 selectivity): ratio of AlphaScreen IC50 values, NE = not efficient
# MOLM-13 cells [4] = experiment: Cell viability by CellTiterGlo; format: cell-based; settings: 72 h of treatment, CellTiterGlo, normalized to DMSO, read-out: Viability IC50 MOLM-13
# Kasumi1 cells = experiment: Cell viability by CellTiterGlo; format: cell-based; settings: 72 h of treatment, CellTiterGlo, normalized to DMSO, read-out: Viability IC50 Kasumi1
# MV4;11 cells [5] = experiment: Cell viability by CellTiterGlo; format: cell-based; settings: for IC50: 72 h of treatment, CellTiterGlo, normalized to DMSO, read-out: Viability IC50 MV4;11; for EC50: Table S6, NE = not efficient, read-out: MV4-11 EC50 (viability)
# THP1 cells = experiment: Cell viability by CellTiterGlo; format: cell-based; settings: 72 h of treatment, CellTiterGlo, normalized to DMSO, read-out: Viability IC50 THP1
# MV4;11 cells [6] = experiment: Apoptosis detection (Annexin V) by flow cytometry; format: cell-based; settings: 72 h of treatment
# [7] = system: MYC expression in MV4;11 cells; experiment: MYC expression by RT-qPCR; format: cell-based; settings: 8 h of treatment
# [8] = system: MYC expression in MOLM-13 cells; experiment: MYC expression by RT-qPCR; format: cell-based; settings: 8 h of treatment
# MV4;11 cells [9] = experiment: Cell cycle analysis by flow cytometry; format: cell-based; settings: 24 h of treatment at the IC50
# MOLM-13 cells [10] = experiment: Apoptosis detection (Annexin V) by flow cytometry; format: cell-based; settings: 72 h of treatment
# TAF1L-BD2 = settings: BROMOscan profile; cited from earlier work
# TAF1-BD2 = settings: BROMOscan profile; cited from earlier work
# BRD4-BD1 [11] = target: T2, BRD4-BD1; set-up: the bromodomain 1 (BD1) of BRD4; purchased Eurofins DiscoverX (Fremont, CA); host or cells: E. coli host derived from the BL21 strain, T7 phage; settings: read-out: IC50 BRD4-BD1 AlphaScreen; cited from earlier work
# BRD2-BD1 = target: T4, BRD2-BD1 (Homo sapiens, UniProt P25440); settings: cited from earlier work
# T4 construct: two similar tandem bromodomains (BD1 and BD2); purchased Eurofins DiscoverX (Fremont, CA); host or cells: E. coli host derived from the BL21 strain, T7 phage
# T4 sequence (P25440 74-180 limits assumed): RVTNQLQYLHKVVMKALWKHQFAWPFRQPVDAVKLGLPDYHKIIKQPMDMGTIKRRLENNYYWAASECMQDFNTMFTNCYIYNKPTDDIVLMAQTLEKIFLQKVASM
# BRD4-BD1 [12] = target: T2, BRD4-BD1; set-up: the bromodomain 1 (BD1) of BRD4; purchased Eurofins DiscoverX (Fremont, CA); host or cells: E. coli host derived from the BL21 strain, T7 phage; settings: BROMOscan assays; cited from earlier work
# BD2 = system: BD2; set-up: method as in PMID 24391744; settings: cited from earlier work
# [13] = AlphaScreen, biotinylated JQ1 10 nM, His-bromodomain 10 nM
# [14] = AlphaScreen, biotinylated JQ1 10 nM, His-bromodomain 10 nM, NE = not efficient, read-out: BRDT-BD2 IC50
# [15] = AlphaScreen, biotinylated JQ1 10 nM, His-bromodomain 10 nM, NE = not efficient
Compound,IC50 (BRD4-BD2) [nM],BRD4-BD1 vs. BRD4-BD2 fold (BRD4-BD1 selectivity) (BRD4-BD1 [3]),IC50 (BRD4-BD1 [3]) [nM],IC50 (BRDT-BD2; read-out: BRDT-BD2 IC50) [nM],IC50 (BRDT-BD1) [nM],BRDT-BD1 vs. BRDT-BD2 fold (BRDT-BD1 selectivity) (BRDT-BD1),further results
"Cc1nnc2n1-c1ccc(Cl)cc1C(c1ccccc1)=NC2 [Alprazolam, reference compound]",,,,,,,half-life at 2 μM [1]: 5.03 h; half-life at 2 μM [2]: 14.4 h
CNC(=O)C(CC1CCN(C(=O)Cc2ccc3[nH]c(=O)cc(C)c3c2)CC1)NC(=O)c1ccc(-c2ccc(C)cc2C)cn1 (centres unmarked) [CDD-724],34300,4035 fold,8.5,12800,5.7,"2,246 fold and > 2,000 fold",
Cc1cc(=O)[nH]c2ccc(CC(=O)N3CCC(CCNC(=O)c4ccccn4)CC3)cc12 [CDD-767],75200,"5,449 fold",13.8,6800,35.4,192 fold,
Cc1cc(=O)[nH]c2ccc(CC(=O)N3CCN(CCNC(=O)c4ccccn4)CC3)cc12 [CDD-778],,,,,,13.8 fold,IC50 (BRD4-BD1 [3]; [13]): 1300 nM; IC50 (BRDT-BD2; [14]): 71800 nM; IC50 (BRDT-BD1; [13]): 5200 nM
Cc1cc(=O)[nH]c2ccc(CC(=O)N3CCC(CCNC(=O)c4ccccc4)CC3)cc12 [CDD-779],,,47.9,10400,148,70 fold,
CNC(=O)C(CC1CCN(C(=O)Cc2ccc3[nH]c(=O)cc(C)c3c2)CC1)NC(=O)c1ccccn1 (centres unmarked) [CDD-784],,"2,078 fold",,,,960 fold,IC50 (BRD4-BD2; [15]): 32600 nM; IC50 (BRD4-BD1 [3]; [13]): 15.7 nM; IC50 (BRDT-BD2; [14]): 19400 nM; IC50 (BRDT-BD1; [13]): 20.2 nM
CNC(=O)[C@H](CC1CCN(C(=O)Cc2ccc3[nH]c(=O)cc(C)c3c2)CC1)NC(=O)c1ccc(-c2ccc(C)cc2C)cn1 [CDD-786],6100,275 fold,22.2,6300,96.6,65 fold,"IC50 (MOLM-13 cells [4]; Homo sapiens, MOLM-13): 729 nM; IC50 (Kasumi1 cells; Homo sapiens, Kasumi 1): 262 nM; IC50 (MV4;11 cells [5]; Homo sapiens, MV4-11): 853 nM; IC50 (THP1 cells; Homo sapiens, THP-1): 1200 nM"
Cc1ccc(-c2ccc(C(=O)NCCC3CCN(C(=O)Cc4ccc5[nH]c(=O)cc(C)c5c4)CC3)nc2)c(C)c1 [CDD-813],8690,312 fold,27.8,67800,33.7,2012 fold,
Cc1cc(=O)[nH]c2ccc(CC(=O)N3CCC(CCNC(=O)c4nccc5ccccc45)CC3)cc12 [CDD-853],,,341,,638,,
Cc1cc(=O)[nH]c2ccc(CC(=O)N3CCC(CCNC(=O)c4cc5ccccc5cn4)CC3)cc12 [CDD-854],,,,,,,IC50 (BRD4-BD1 [3]; [13]): 119 nM; IC50 (BRDT-BD1; [13]): 116 nM
Cc1cc(=O)[nH]c2ccc(CC(=O)N3CCC(CCNC(=O)c4ccc5ccccc5n4)CC3)cc12 [CDD-855],,,,,,,IC50 (BRD4-BD1 [3]; [13]): 122 nM; IC50 (BRDT-BD1; [13]): 81.3 nM
Cc1ccc(-c2ccc(C(=O)NC(C)CC3CCN(C(=O)Cc4ccc5[nH]c(=O)cc(C)c5c4)CC3)nc2)c(C)c1 (centres unmarked) [CDD-906],,381 fold,,,,756 fold,IC50 (BRD4-BD2; [15]): 20000 nM; IC50 (BRD4-BD1 [3]; [13]): 52.4 nM; IC50 (BRDT-BD2; [14]): 23400 nM; fold loss of selectivity on BRDT-BD1 (BRDT-BD1; AlphaScreen): 6.5 fold; IC50 (BRDT-BD1; [13]): 31 nM
CNC(=O)[C@@H](CC1CCN(C(=O)Cc2ccc3[nH]c(=O)cc(C)c3c2)CC1)NC(=O)c1ccc(-c2ccccc2)cn1 [CDD-956],,,,,,,"Induction of apoptosis (Annexin V+ cells), MV4;11 (MV4;11 cells [6]): apoptosis; MYC expression, MV4;11 [7]: suppressed; MYC expression, MOLM-13 [8]: suppressed; Effect on the cell cycle, MV4;11 (MV4;11 cells [9]): G1 arrest; Induction of apoptosis (Annexin V+ cells), MOLM-13 (MOLM-13 cells [10]): apoptosis; half-life at 2 μM [1]: 0.583 h"
CNC(=O)[C@@H](CC1CCN(C(=O)Cc2ccc3[nH]c(=O)cc(C)c3c2)CC1)NC(=O)c1ccc(-c2ccc(Cl)cc2)cn1 [CDD-981],19900,"1,553 fold",12.8,33800,5.1,"6,633 fold","EC50 (MV4;11 cells [5]; Homo sapiens, MV4-11): 58 nM"
CNC(=O)[C@@H](CC1CCN(C(=O)Cc2ccc3[nH]c(=O)cc(C)c3c2)CC1)NC(=O)c1ccc(-c2ccc(Cl)c(F)c2)cn1 [CDD-982],14000,"1,423 fold",9.8,22600,4.7,"4,799 fold","EC50 (MV4;11 cells [5]; Homo sapiens, MV4-11): 100 nM"
CNC(=O)C(CC1CCN(C(=O)Cc2ccc3[nH]c(=O)ccc3c2)CC1)NC(=O)c1ccc(-c2ccccc2)cn1 (centres unmarked) [CDD-986],,"2,352 fold",,,,"3,875 fold",IC50 (BRD4-BD2; [15]): 16700 nM; fold loss of selectivity over BRD4-BD2 (BRD4-BD1 [3]; AlphaScreen): 1.6 fold; IC50 (BRDT-BD2; [14]): 20900 nM; EC50 (MV4;11 cells [5]): 143 nM
Cc1cc2c(-c3ccco3)cnc(N[C@@H]3CCN(C)C[C@H]3C(=O)NC3CCCCC3)c2[nH]c1=O [GSK789],,,,,,,Kd (TAF1L-BD2): 398 nM; Kd (TAF1-BD2): 50 nM
"Cc1sc2c(c1C)C(c1ccc(Cl)cc1)=N[C@@H](CC(=O)OC(C)(C)C)c1nnc(C)n1-2 [JQ1, reference compound]",,,,,,,IC50 (MOLM-13 cells [4]): 130 nM; IC50 (Kasumi1 cells): 29.8 nM; IC50 (MV4;11 cells [5]): 61.9 nM; IC50 (THP1 cells): 130 nM
COc1ccccc1S(=O)(=O)Nc1ccc2c3c(cc(-n4cnc(C)c4)nc13)C(=O)N2C [LT052],,,,,,,IC50 (BRD4-BD1 [11]): 88 nM; IC50 (BRD2-BD1): 9000 nM; selectivity for BRD4-BD1 over BRD4-BD2 (BRD4-BD1 [12]): 138 fold
COc1cc(OC)c2c(=O)[nH]c(-c3cc(C)c(OCCO)c(C)c3)nc2c1 [RVX-208],,,,,,,"IC50 (BRDT-BD2; AlphaScreen, read-out: IC50 in our BRDT-BD2 AlphaScreen assay): 2000 nM; selectivity over BD1 domains (BD2; BD2 over BD1): ~10 fold; BD2 potency (BD2): > 100 nM"
